# Data as given in patent US20150284335A1, “Benzoimidazoles as prolyl hydroxylase inhibitors” (Janssen Pharmaceutica NV, priority 2008, published 2015).
# Marks after values point to notes of the source that are not given here.
# Tests used:
# PHD2181-417 = target: T1, PHD2181-417 (Homo sapiens, UniProt Q9GZT9); experiment: PHD enzyme activity assay ([14C]-succinic acid production); assay type: biochemical; conditions: inhibition of PHD2181-417 activity; HIF-1α peptide 10 μM, [5-14C]-2-oxoglutaric acid, 10 minutes; read-out: Enzyme pIC50 (converted);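 note: enzyme expressed in E. coli BL21, assayed in Tris-HCl pH 7.5 with catalase, DTT and ascorbate, [14C]-succinic acid beta-counted after DNP precipitation of residual 2-oxoglutarate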
# T1 construct: histidine tag (N, cleaved yes); Smt3 (SUMO) tag (N, cleaved yes); made in house; host or cells: E. coli BL21 (pBAD vector)
# T1 sequence (Q9GZT9 181-417): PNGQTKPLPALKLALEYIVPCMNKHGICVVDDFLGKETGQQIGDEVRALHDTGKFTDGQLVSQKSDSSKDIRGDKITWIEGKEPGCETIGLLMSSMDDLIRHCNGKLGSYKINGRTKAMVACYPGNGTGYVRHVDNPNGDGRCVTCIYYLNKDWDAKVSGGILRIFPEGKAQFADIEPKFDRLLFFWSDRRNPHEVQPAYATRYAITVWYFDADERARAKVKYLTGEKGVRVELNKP
# Hep-3B cells = experiment: Cellular assay: EPO secretion in Hep-3B cells; assay type: cell-based, human; conditions: 24 hours, percent of EPO secretion relative to assay control compound
# [1] = final compound concentration 100 μM
Structure (SMILES),IC50 (PHD2181-417),Cellular % EPO Stimulation (Hep-3B cells; [1]),Cellular % EPO Stimulation (Hep-3B cells; final compound concentration of 10 μM)
"Cc1cc(-c2ccc3[nH]c(C(=O)NCC(=O)O)nc3c2)cc(C)c1OCc1cccc(Cl)c1 [Example 22, ({5-[4-(3-Chloro-benzyloxy)-3,5-dimethyl-phenyl]-1H-benzoimidazole-2-carbonyl}-amino)-acetic acid]",12.6 µM,−1.06%,–
"O=C(O)CNC(=O)c1nc2ccc(NS(=O)(=O)c3ccccc3)cc2[nH]1 [Example 30, [(6-Benzenesulfonylamino-1H-benzoimidazole-2-carbonyl)-amino]-acetic acid]",31.6 µM,1.10%,–
"O=C(O)CNC(=O)c1nc2ccc(NCc3ccccc3)cc2[nH]1 [Example 31, [(6-Benzylamino-1H-benzoimidazole-2-carbonyl)-amino]-acetic acid]",5.01 µM,1.40%,–
"O=C(O)c1cnn(-c2nc3cc(Cl)c(Cl)cc3[nH]2)c1 [Example 33, 1-(5,6-Dichloro-1H-benzoimidazol-2-yl)-1H-pyrazole-4-carboxylic acid]",0.1 µM,168.46%,–
"O=C(O)c1cnn(-c2nc3cc(C(F)(F)F)ccc3[nH]2)c1 [Example 34, 1-(5-Trifluoromethyl-1H-benzoimidazol-2-yl)-1H-pyrazole-4-carboxylic acid]",0.251 µM,127.80%,–
"O=C(O)c1cnn(-c2nc3cc(-c4cccc(OCc5ccc(Cl)cc5)c4)ccc3[nH]2)c1 [Example 45, 1-{5-[3-(4-Chloro-benzyloxy)-phenyl]-1H-benzoimidazol-2-yl}-1H-pyrazole-4-carboxylic acid]",0.0398 µM,2.10%,–
"C[C@@H](NC(=O)c1nc2cc(Cl)c(Cl)cc2[nH]1)C(=O)O [Example 53, (R)-2-[(5,6-Dichloro-1H-benzoimidazole-2-carbonyl)-amino]-propionic acid]",> 100 µM,–,11.3* %
"C[C@@H](NC(=O)c1nc2ccc(I)cc2[nH]1)C(=O)O [Example 54, (R)-2-[(5-Iodo-1H-benzoimidazole-2-carbonyl)-amino]-propionic acid]",> 100 µM,7.50%,–

# The next lines start with results.
IC50 (PHD2181-417),Structure (SMILES),Cellular % EPO Stimulation (Hep-3B cells; [1]),Cellular % EPO Stimulation (Hep-3B cells; final compound concentration of 10 μM)
7.94 µM,"O=C(O)CNC(=O)c1nc2cc(-c3ccc(OCc4cccc(Cl)c4)c(Cl)c3)ccc2[nH]1 [Example 21, ({5-[3-Chloro-4-(3-chloro-benzyloxy)phenyl]-1H-benzoimidazole-2-carbonyl}-amino)-acetic acid]",−1.43%,–
39.8 µM,"COc1cccc(-c2ccc3[nH]c(C(=O)NCC(=O)O)nc3c2)c1 [Example 23, {[5-(3-Methoxy-phenyl)-1H-benzoimidazole-2-carbonyl]-amino}-acetic acid]",1.40%,–
15.8 µM,"O=C(O)CNC(=O)c1nc2cc(-c3cc(C(=O)NCc4ccccc4)ccc3F)ccc2[nH]1 [Example 24, {[5-(5-Benzylcarbamoyl-2-fluoro-phenyl)-1H-benzoimidazole-2-carbonyl]-amino}-acetic acid]",13.56%,–
12.6 µM,"O=C(O)CNC(=O)c1nc2cc(-c3ccc4ccccc4c3)ccc2[nH]1 [Example 25, [(5-Naphthalen-2-yl-1H-benzoimidazole-2-carbonyl)-amino]-acetic acid]",2.10%,–
15.8 µM,"CCCOc1ccc(-c2ccc3[nH]c(C(=O)NCC(=O)O)nc3c2)cc1 [Example 26, {[5-(4-Propoxy-phenyl)-1H-benzoimidazole-2-carbonyl]-amino}-acetic acid]",2.50%,–
39.8 µM,"Cc1cc(-c2ccc3[nH]c(C(=O)NCC(=O)O)nc3c2)ccc1Cl [Example 27, {[5-(4-Chloro-3-methyl-phenyl)-1H-benzoimidazole-2-carbonyl]-amino}-acetic acid]",−0.70%,–
25.1 µM,"O=C(O)CNC(=O)c1nc2cc(-c3cc(Cl)ccc3F)ccc2[nH]1 [Example 28, {[5-(5-Chloro-2-fluoro-phenyl)-1H-benzoimidazole-2-carbonyl]-amino}-acetic acid]",1.40%,–
63.1 µM,"O=C(O)CNC(=O)c1nc2cc(NC(=O)c3ccccc3)ccc2[nH]1 [Example 29, [(5-Benzoylamino-1H-benzoimidazole-2-carbonyl)-amino]-acetic acid]",−3.30%,–
